Our source for the IC50 values is patent US7662832B2, “Pyrrolo[2,3-c]pyridine derivatives and processes for the preparation thereof” (priority 2004, dated 2010).

The structures appear in SMILES notation. Where a name gives a salt, the structure may show the parent alone.

In the experiment the target is Proton Pump (H^+/K^+-ATPase) (Sus scrofa, UniProt P19156). Briefly: Inhibitory effects on proton pump (H^+/K^+-ATPase) activity. The format is biochemical. The following applies: hog gastric vesicles; K^+ stimulated H^+/K^+-ATPase activity; 30 minutes at 37° C.
Proton Pump (H^+/K^+-ATPase), sequence (P19156 2-1034 limits assumed): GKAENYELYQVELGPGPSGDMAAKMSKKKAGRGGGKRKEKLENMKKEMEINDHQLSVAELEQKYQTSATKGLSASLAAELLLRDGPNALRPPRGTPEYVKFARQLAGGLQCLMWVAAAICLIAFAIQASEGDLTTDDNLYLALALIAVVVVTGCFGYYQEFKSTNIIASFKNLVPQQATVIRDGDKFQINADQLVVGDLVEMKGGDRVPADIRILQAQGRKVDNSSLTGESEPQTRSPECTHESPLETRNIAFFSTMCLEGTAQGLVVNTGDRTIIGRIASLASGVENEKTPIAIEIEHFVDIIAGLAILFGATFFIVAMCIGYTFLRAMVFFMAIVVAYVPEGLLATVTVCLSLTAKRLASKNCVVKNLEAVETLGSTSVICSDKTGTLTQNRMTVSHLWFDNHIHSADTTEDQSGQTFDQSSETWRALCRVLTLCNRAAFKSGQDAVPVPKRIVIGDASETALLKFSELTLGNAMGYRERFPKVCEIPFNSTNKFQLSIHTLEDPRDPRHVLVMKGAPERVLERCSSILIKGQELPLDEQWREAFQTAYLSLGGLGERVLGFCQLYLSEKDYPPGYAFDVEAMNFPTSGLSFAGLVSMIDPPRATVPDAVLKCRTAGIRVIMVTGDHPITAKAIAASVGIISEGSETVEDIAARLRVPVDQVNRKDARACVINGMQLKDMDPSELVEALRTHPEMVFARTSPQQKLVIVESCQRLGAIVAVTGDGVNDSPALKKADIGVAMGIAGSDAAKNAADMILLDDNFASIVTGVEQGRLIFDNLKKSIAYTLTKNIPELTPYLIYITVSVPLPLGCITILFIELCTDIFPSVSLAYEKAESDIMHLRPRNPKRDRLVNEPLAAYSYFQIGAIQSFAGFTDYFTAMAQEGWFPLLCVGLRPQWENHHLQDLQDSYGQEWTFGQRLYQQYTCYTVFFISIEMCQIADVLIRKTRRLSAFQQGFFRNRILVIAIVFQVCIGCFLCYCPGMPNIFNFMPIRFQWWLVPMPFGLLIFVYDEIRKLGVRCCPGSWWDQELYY
Proton Pump (H^+/K^+-ATPase), sequence (P18434 whole entry partner): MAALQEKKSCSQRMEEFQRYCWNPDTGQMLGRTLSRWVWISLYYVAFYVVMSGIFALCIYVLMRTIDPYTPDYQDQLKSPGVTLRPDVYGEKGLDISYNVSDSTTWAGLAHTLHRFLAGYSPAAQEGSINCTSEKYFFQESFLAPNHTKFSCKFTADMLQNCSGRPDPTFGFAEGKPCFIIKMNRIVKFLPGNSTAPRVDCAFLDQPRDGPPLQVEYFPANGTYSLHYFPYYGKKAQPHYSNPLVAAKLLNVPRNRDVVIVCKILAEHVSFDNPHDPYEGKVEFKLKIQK
By IC50 is commonly meant the concentration that inhibits the measured activity by half. Higher therefore signals weaker potency in that assay. On to `Cc1c(C)n(CC2CC2)c2c(-c3ccc4ccccc4c3)nccc12` [Example 403, 1-cyclopropylmethyl-2,3-dimethyl-7-(naphthalen-2-yl)-1H-pyrrolo[2,3-c]pyridine hydrochloride], for which the midpoint of inhibition, the IC50, lay at 70 nM.

For the molecule `Cc1c(C)n(Cc2ccc(F)cc2)c2c(N3CCc4ccccc4C3)nccc12` [Example 471, 1-(4-fluorobenzyl)-7-(1,2,3,4-tetrahydroisoquinolin-2-yl)-2,3-dimethyl-1H-pyrrolo[2,3-c]pyridine hydrochloride], the IC50 was found to be 230 nM.

Consider `C=Cc1ccc(-c2nccc3c(C)c(C)n(CCOC)c23)cc1` [Example 247, 1-(2-methoxyethyl)-2,3-dimethyl-7-(4-vinylphenyl)-1H-pyrrolo[2,3-c]pyridine hydrochloride], for which half-maximal inhibition (IC50) required 90 nM.

Molecule `COc1cccc(Cn2c(C)c(C)c3ccnc(COc4ccc(Cl)cc4)c32)c1` [Example 45, 7-(4-chlorophenoxymethyl)-1-(3-methoxybenzyl)-2,3-dimethyl-1H-pyrrolo[2,3-c]pyridine hydrochloride] returned an IC50 of 71 nM.

`C=Cc1ccc(-c2nccc3c(C)c(C)n(CC)c23)cc1` [Example 251, 1-ethyl-2,3-dimethyl-7-(4-vinylphenyl)-1H-pyrrolo[2,3-c]pyridine hydrochloride] registered an IC50 of 460 nM.

As to `Cc1[nH]c2c(N3CCc4ccccc4C3)nc(C=O)cc2c1C` [Example 862, 7-(3,4-dihydro-1H-isoquinolin-2-yl)-2,3-dimethyl-1H-pyrrolo[2,3-c]pyridin-5-carbaldehyde], the 50% inhibitory concentration (IC50) was 403 nM.

`C=CCn1c(C)c(C)c2ccnc(-c3ccc(Cl)cc3)c21` [Example 300, 1-allyl-7-(4-chlorophenyl)-2,3-dimethyl-1H-pyrrolo[2,3-c]pyridine hydrochloride] came in with an IC50 of 173 nM.

`CCc1c(C)c2ccnc(N3CCc4ccccc4C3)c2n1C` [Example 609, 2-ethyl-1,3-dimethyl-7-(1,2,3,4-tetrahydroisoquinolin-2-yl)-1H-pyrrolo[2,3-c]pyridine hydrochloride] returned an IC50 of 379 nM.

`Cc1c(C)n(Cc2ccccc2F)c2c(-c3ccc4ccccc4c3)nccc12` [Example 409, 1-(2-fluorobenzyl)-2,3-dimethyl-7-(naphthalen-2-yl)-1H-pyrrolo[2,3-c]pyridine hydrochloride] gave an IC50 of 93 nM.

For the molecule `Cc1c(C)n(Cc2cccc(F)c2)c2c(CCc3ccccc3)nccc12` [Example 449, 1-(3-fluorobenzyl)-2,3-dimethyl-7-phenethyl-1H-pyrrolo[2,3-c]pyridine hydrochloride], the IC50 came out at 87 nM.

With `Cc1ccc(Cn2c(C)c(C)c3ccnc(C=Cc4ccccc4)c32)cc1` [Example 417, 2,3-dimethyl-1-(4-methylbenzyl)-7-styryl-1H-pyrrolo[2,3-c]pyridine hydrochloride], the IC50 was 370 nM.

`Cc1[nH]c2c(N3CCc4ccccc4C3)nc(C(=O)N3CCCCC3)cc2c1C` [Example 791, [7-(3,4-dihydro-1H-isoquinolin-2-yl)-2,3-dimethyl-1H-pyrrolo[2,3-c]pyridin-5-yl]-(piperidin-1-yl)-methanone hydrochloride] had an IC50 of 122 nM.

`Cc1c(C)n(Cc2ccccc2)c2c(NCc3ccc(F)cc3)nc(C(=O)N3CCOCC3)cc12` [Example 909, [1-benzyl-7-(4-fluorobenzylamino)-2,3-dimethyl-1H-pyrrolo[2,3-c]pyridin-5-yl]-(morpholin-4-yl)-methanone hydrochloride] registered an IC50 of 90 nM.

Regarding `COc1cccc(Cn2c(C)c(C)c3ccnc(COc4ccc(C)cc4)c32)c1` [Example 16, 1-(3-methoxybenzyl)-2,3-dimethyl-7-(p-tolyloxymethyl)-1H-pyrrolo[2,3-c]pyridine hydrochloride], the IC50 was 180 nM.

In the case of `Cc1[nH]c2c(N3CCc4ccccc4C3)nc(C(=O)N3CCN(C)CC3)cc2c1C` [Example 827, [7-(3,4-dihydro-1H-isoquinolin-2-yl)-2,3-dimethyl-1H-pyrrolo[2,3-c]pyridin-5-yl]-(4-methylpiperazin-1-yl)-methanone hydrochloride], 77 nM corresponded to half-maximal inhibition (IC50).

As to `Cc1ccc(Cn2c(C)c(C)c3ccnc(N4CCc5ccc(F)cc5C4C)c32)cc1` (centres unmarked) [Example 548, 2-[2,3-dimethyl-1-(4-methylbenzyl)-1H-pyrrolo[2,3-c]pyridin-7-yl]-7-fluoro-1-methyl-1,2,3,4-tetrahydroisoquinoline hydrochloride], the half-maximal inhibitory concentration (IC50) was 410 nM.

Take `CCCn1c(C)c(C)c2cc(C#N)nc(N3CCc4ccccc4C3)c21` [Example 697, 7-(3,4-dihydro-1H-isoquinolin-2-yl)-2,3-dimethyl-1-propyl-1H-pyrrolo[2,3-c]pyridin-5-carbonitrile]: the IC50 worked out at 3200 nM.

`C=CCn1c(C)c(C)c2ccnc(N3CCc4ccccc4C3)c21` [Example 491, 1-allyl-7-(1,2,3,4-tetrahydroisoquinolin-2-yl)-2,3-dimethyl-1H-pyrrolo[2,3-c]pyridine maleate] registered an IC50 of 2 nM.

Consider `CSc1ccc(-c2nccc3c(C)c(C)[nH]c23)cc1` [Example 262, 2,3-dimethyl-7-(4-methylsulfanylphenyl)-1H-pyrrolo[2,3-c]pyridine], for which the IC50 worked out at 220 nM.

Consider `Cc1c(C)n(Cc2ccc(F)cc2)c2c(CN(C)c3ccc(F)cc3)nccc12` [Example 118, N-[1-(4-fluorobenzyl)-2,3-dimethyl-1H-pyrrolo[2,3-c]pyridin-7-ylmethyl]-N-(4-fluorophenyl)-methylamine hydrochloride], for which the IC50 amounted to 332 nM.

For the molecule `Cc1c(C)n(Cc2ccccc2F)c2c(N3CCc4ccccc4C3)nccc12` [Example 483, 1-(2-fluorobenzyl)-7-(1,2,3,4-tetrahydroisoquinolin-2-yl)-2,3-dimethyl-1H-pyrrolo[2,3-c]pyridine hydrochloride], half-maximal inhibition (IC50) required 330 nM.

On to `C=CCCn1c(C)c(C)c2cc(C#N)nc(N3CCc4ccccc4C3)c21` [Example 683, 1-(but-3-enyl)-7-(3,4-dihydro-1H-isoquinolin-2-yl)-2,3-dimethyl-1H-pyrrolo[2,3-c]pyridin-5-carbonitrile], for which inhibition was half-maximal at 1560 nM (IC50).

`Cc1ccc(CNc2nccc3c(C)c(C)n(CC4CC4)c23)cc1` [Example 204, 1-cyclopropylmethyl-2,3-dimethyl-7-(4-methylbenzylamino)-1H-pyrrolo[2,3-c]pyridine hydrochloride] registered an IC50 of 210 nM.

`Cc1c(C)n(Cc2cccc(F)c2)c2c(N3CCc4ccccc4C3)nc(C(=O)N3CCCCC3)cc12` [Example 796, [7-(3,4-dihydro-1H-isoquinolin-2-yl)-1-(3-fluorobenzyl)-2,3-dimethyl-1H-pyrrolo[2,3-c]pyridin-5-yl]-(piperidin-1-yl)-methanone hydrochloride] yielded an IC50 of 305 nM.

Take `COc1cccc(Cn2c(C)c(C)c3cc(C(=O)N4CCOCC4)nc(N4CCc5ccccc5C4)c32)c1` [Example 780, [7-(3,4-dihydro-1H-isoquinolin-2-yl)-1-(3-methoxybenzyl)-2,3-dimethyl-1H-pyrrolo[2,3-c]pyridin-5-yl]-(morpholin-4-yl)-methanone hydrochloride]: the IC50 was 125 nM.

In turn, `C#CCn1c(C)c(C)c2ccnc(N3CCc4ccccc4C3)c21` [Example 506, 1-(prop-2-ynyl)-7-(1,2,3,4-tetrahydroisoquinolin-2-yl)-2,3-dimethyl-1H-pyrrolo[2,3-c]pyridine hydrochloride] gave an IC50 of 69 nM.
